Our source for the residual activity values is the kinase profiling compilation of Christmann-Franck et al. (2016).

TAOK2 (human), sequence (Q9UL54 whole entry, looked up): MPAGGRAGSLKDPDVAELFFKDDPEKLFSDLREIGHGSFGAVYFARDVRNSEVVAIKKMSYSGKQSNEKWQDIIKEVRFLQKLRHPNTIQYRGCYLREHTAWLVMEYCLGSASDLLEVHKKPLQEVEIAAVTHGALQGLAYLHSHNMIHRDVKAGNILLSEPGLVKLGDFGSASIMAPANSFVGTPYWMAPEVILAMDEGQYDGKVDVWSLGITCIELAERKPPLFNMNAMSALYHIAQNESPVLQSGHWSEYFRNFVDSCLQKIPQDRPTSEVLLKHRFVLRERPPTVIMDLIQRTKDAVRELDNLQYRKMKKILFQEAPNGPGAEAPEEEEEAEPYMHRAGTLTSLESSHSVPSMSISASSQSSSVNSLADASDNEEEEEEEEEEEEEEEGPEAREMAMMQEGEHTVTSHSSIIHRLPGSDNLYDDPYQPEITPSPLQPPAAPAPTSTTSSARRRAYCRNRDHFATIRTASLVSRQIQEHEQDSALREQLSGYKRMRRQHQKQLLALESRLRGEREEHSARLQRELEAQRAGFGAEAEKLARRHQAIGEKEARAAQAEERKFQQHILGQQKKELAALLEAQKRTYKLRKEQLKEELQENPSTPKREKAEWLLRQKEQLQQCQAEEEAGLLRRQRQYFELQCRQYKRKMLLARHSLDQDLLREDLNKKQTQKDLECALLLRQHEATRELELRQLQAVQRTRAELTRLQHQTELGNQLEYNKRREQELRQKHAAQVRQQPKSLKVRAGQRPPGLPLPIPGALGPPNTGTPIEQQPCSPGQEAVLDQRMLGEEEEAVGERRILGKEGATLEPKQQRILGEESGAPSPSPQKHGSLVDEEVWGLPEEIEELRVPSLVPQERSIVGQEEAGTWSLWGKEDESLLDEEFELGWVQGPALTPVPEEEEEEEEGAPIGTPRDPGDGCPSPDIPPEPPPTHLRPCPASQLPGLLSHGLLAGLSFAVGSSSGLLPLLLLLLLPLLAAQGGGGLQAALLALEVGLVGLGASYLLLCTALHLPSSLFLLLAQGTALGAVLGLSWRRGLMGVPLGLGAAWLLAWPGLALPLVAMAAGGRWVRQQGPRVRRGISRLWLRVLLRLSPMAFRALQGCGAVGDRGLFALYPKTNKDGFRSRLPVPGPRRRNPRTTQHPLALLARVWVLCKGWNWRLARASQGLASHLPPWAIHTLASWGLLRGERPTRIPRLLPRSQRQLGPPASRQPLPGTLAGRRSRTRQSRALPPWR

The target in the first experiment is MAPKAPK5 (human) (UniProt Q8IW41). As to the kind of experiment: radiometric filter-binding kinase assay, Kinase HotSpot. Conditions: compound 0.5 µM; ATP 10 µM.
The residual activity is the signal under treatment as a percentage of the control signal. Take `O=C1Nc2ccccc2/C1=C1/Nc2ccccc2/C1=N\OCCC(O)CO` (stereo not drawn): the residual activity amounted to 86.8%.
The same measure, in the same setting: then `Nc1nnc2[nH]c3ccccc3nc1-2`, with 82.7%.
Same read-out and setting: then `Cn1sc(=O)n(Cc2ccccc2)c1=O`, with 94.2%.

A further experiment addresses EPHB4 (human) (UniProt P54760). The experiment is described as above. Conditions: compound 0.5 µM; ATP 10 µM.
With `O=C1Nc2ccccc2/C1=C1/Nc2ccccc2/C1=N\OCCC(O)CO` (stereo not drawn), the residual activity turned out to be 72.2%.
The same measure, in the same setting: the value for `Nc1nnc2[nH]c3ccccc3nc1-2` was 84.9%.
As to `Cn1sc(=O)n(Cc2ccccc2)c1=O`, the residual activity was determined as 100%.

Another experiment deals with AKT2 (human) (UniProt P31751). Described as above. The note with it: compound 0.5 µM; ATP 10 µM.
As to `O=C1Nc2ccccc2/C1=C1/Nc2ccccc2/C1=N\OCCC(O)CO` (stereo not drawn), the residual activity was found to be 90.1%.
The same measure, in the same setting: then `Nc1nnc2[nH]c3ccccc3nc1-2`, with 90.1%; and `Cn1sc(=O)n(Cc2ccccc2)c1=O`, with 99.2%.

Another experiment has as its target TAOK2 (human) (UniProt Q9UL54). The experiment is described as above. Conditions: compound 0.5 µM; ATP 10 µM.
`O=C1Nc2ccccc2/C1=C1/Nc2ccccc2/C1=N\OCCC(O)CO` (stereo not drawn): the residual activity was found to be 83.4%.
On the same count and under the same terms, the value for `Nc1nnc2[nH]c3ccccc3nc1-2` was 103%; that for `Cn1sc(=O)n(Cc2ccccc2)c1=O` was 91%.

Another experiment has as its target MUSK (human) (UniProt O15146). The description is as above. Conditions: compound 0.5 µM; ATP 10 µM.
Turning to `O=C1Nc2ccccc2/C1=C1/Nc2ccccc2/C1=N\OCCC(O)CO` (stereo not drawn), the residual activity came out at 58%.
The same measure, in the same setting: the value for `Nc1nnc2[nH]c3ccccc3nc1-2` was 82.6%.
Still for that read-out and setting: then `Cn1sc(=O)n(Cc2ccccc2)c1=O`, with 103%.

Another experiment has as its target LRRK2 (human) (UniProt Q5S007). The description is as above. The note with it: compound 0.5 µM; ATP 10 µM.
For the molecule `O=C1Nc2ccccc2/C1=C1/Nc2ccccc2/C1=N\OCCC(O)CO` (stereo not drawn), the residual activity was determined as 81.2%.
On the same count and under the same terms, the value for `Nc1nnc2[nH]c3ccccc3nc1-2` was 90.5%.
On the same count and under the same terms, the value for `Cn1sc(=O)n(Cc2ccccc2)c1=O` was 91.9%.

In a further experiment the target is CAMKK2 (human) (UniProt Q96RR4). The experiment is described as above. Conditions: compound 0.5 µM; ATP 10 µM.
CAMKK2 (human), sequence (Q96RR4 whole entry, looked up): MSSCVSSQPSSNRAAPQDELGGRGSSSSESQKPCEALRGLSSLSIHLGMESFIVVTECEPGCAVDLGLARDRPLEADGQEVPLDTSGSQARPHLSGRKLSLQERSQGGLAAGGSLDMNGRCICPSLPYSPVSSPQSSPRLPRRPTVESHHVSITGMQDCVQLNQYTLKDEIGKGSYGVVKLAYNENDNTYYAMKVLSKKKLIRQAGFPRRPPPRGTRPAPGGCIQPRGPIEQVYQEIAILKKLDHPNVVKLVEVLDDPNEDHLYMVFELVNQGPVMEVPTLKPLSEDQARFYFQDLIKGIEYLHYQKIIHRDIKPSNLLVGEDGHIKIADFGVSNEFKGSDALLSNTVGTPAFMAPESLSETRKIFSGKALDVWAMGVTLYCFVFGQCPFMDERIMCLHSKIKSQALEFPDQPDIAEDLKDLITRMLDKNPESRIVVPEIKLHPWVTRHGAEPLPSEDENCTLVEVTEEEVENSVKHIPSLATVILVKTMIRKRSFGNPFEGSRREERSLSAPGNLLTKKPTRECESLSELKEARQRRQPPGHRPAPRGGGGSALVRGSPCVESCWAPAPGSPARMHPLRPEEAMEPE
In the case of `O=C1Nc2ccccc2/C1=C1/Nc2ccccc2/C1=N\OCCC(O)CO` (stereo not drawn), the residual activity was 26%.
On the same count and under the same terms, the value for `Nc1nnc2[nH]c3ccccc3nc1-2` was 98.8%.
On the same count and under the same terms, the value for `Cn1sc(=O)n(Cc2ccccc2)c1=O` was 95.2%.

The target of a further experiment is PLK1 (human) (UniProt P53350). The experiment is described as above. Conditions: compound 0.5 µM; ATP 10 µM.
With `O=C1Nc2ccccc2/C1=C1/Nc2ccccc2/C1=N\OCCC(O)CO` (stereo not drawn), the residual activity came to 103%.
The same measure, in the same setting: the value for `Nc1nnc2[nH]c3ccccc3nc1-2` was 94.5%; that for `Cn1sc(=O)n(Cc2ccccc2)c1=O` was 97.2%.

The target of the next experiment is STK39 (human) (UniProt Q9UEW8). Described as above. The note with it: compound 0.5 µM; ATP 10 µM.
For the molecule `O=C1Nc2ccccc2/C1=C1/Nc2ccccc2/C1=N\OCCC(O)CO` (stereo not drawn), the residual activity was 79.3%.
Same read-out and setting: then `Nc1nnc2[nH]c3ccccc3nc1-2`, with 116%.
The same measure, in the same setting: the value for `Cn1sc(=O)n(Cc2ccccc2)c1=O` was 97.9%.

For the next experiment, the target named is NTRK1 (human) (UniProt P04629). The description is as above. The note with it: compound 0.5 µM; ATP 10 µM.
On to `O=C1Nc2ccccc2/C1=C1/Nc2ccccc2/C1=N\OCCC(O)CO` (stereo not drawn), for which the residual activity stood at 3.84%.
The same measure, in the same setting: the value for `Nc1nnc2[nH]c3ccccc3nc1-2` was 88.3%.
On the same count and under the same terms, then `Cn1sc(=O)n(Cc2ccccc2)c1=O`, with 99.3%.

The next experiment deals with EGFR (human) (UniProt P00533). Described as above. The note with it: compound 0.5 µM; ATP 10 µM.
EGFR (human), sequence (P00533 whole entry, looked up): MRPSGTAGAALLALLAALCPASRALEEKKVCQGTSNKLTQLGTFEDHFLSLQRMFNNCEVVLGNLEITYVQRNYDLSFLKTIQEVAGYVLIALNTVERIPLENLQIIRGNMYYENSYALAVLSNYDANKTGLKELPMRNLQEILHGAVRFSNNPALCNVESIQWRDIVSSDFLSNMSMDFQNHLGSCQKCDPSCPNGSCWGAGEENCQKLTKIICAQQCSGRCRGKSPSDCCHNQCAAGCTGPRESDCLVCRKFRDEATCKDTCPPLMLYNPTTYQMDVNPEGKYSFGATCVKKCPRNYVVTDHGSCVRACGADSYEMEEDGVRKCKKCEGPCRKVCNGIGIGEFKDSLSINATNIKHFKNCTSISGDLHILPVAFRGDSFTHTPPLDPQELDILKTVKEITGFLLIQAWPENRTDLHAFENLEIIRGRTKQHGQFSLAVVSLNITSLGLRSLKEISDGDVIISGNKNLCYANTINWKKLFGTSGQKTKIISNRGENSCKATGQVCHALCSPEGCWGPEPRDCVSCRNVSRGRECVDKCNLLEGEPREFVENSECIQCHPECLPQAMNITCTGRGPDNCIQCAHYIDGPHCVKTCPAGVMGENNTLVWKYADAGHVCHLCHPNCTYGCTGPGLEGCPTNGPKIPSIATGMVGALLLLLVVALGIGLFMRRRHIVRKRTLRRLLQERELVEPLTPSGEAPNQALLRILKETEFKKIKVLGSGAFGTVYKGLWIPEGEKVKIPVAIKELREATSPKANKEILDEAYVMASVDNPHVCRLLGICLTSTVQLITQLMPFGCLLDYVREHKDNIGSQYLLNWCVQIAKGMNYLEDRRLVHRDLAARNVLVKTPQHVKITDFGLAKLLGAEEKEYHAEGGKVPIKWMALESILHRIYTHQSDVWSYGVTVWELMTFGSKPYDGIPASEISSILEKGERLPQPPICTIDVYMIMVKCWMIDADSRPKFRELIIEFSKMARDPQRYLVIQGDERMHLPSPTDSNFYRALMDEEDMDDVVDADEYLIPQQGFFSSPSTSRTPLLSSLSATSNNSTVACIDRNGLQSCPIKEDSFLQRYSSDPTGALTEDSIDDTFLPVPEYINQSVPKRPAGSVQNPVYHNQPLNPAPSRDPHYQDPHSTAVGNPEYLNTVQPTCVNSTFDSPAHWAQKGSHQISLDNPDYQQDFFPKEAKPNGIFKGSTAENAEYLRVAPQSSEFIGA
Turning to `O=C1Nc2ccccc2/C1=C1/Nc2ccccc2/C1=N\OCCC(O)CO` (stereo not drawn), the residual activity turned out to be 88.1%.
`Nc1nnc2[nH]c3ccccc3nc1-2`: the residual activity stood at 96.4%.
Same read-out and setting: then `Cn1sc(=O)n(Cc2ccccc2)c1=O`, with 105%.

The target in the next experiment is RPS6KA2 KD1 KD2 (human) (UniProt Q15349). The description is as above. The note with it: compound 0.5 µM; ATP 10 µM.
As for `O=C1Nc2ccccc2/C1=C1/Nc2ccccc2/C1=N\OCCC(O)CO` (stereo not drawn), the residual activity amounted to 12.1%.
Same read-out and setting: then `Nc1nnc2[nH]c3ccccc3nc1-2`, with 89.1%; and `Cn1sc(=O)n(Cc2ccccc2)c1=O`, with 104%.

A further experiment has as its target CDC42BPA (human) (UniProt Q5VT25). Described as above. Conditions: compound 0.5 µM; ATP 10 µM.
In the case of `O=C1Nc2ccccc2/C1=C1/Nc2ccccc2/C1=N\OCCC(O)CO` (stereo not drawn), the residual activity stood at 88.6%.
For the molecule `Nc1nnc2[nH]c3ccccc3nc1-2`, the residual activity came out at 95.4%.
Same read-out and setting: then `Cn1sc(=O)n(Cc2ccccc2)c1=O`, with 94%.

The target of a further experiment is HIPK4 (human) (UniProt Q8NE63). Described as above. Conditions: compound 0.5 µM; ATP 10 µM.
HIPK4 (human), sequence (Q8NE63 whole entry, looked up): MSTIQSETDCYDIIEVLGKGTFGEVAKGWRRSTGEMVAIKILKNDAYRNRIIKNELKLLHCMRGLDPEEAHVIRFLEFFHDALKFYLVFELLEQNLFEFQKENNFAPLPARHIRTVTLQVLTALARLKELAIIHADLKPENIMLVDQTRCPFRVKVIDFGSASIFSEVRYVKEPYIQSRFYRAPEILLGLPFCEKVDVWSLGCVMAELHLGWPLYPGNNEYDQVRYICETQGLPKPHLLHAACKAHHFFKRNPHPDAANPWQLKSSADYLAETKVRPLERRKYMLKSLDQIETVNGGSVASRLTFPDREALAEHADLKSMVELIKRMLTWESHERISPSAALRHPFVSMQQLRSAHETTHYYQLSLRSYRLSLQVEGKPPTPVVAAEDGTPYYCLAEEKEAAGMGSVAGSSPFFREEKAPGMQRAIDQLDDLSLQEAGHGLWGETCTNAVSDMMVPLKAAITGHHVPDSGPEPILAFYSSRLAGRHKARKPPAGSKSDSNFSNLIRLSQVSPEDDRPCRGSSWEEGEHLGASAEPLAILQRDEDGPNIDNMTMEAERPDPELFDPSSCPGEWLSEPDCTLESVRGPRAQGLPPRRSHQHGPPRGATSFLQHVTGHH
For the molecule `O=C1Nc2ccccc2/C1=C1/Nc2ccccc2/C1=N\OCCC(O)CO` (stereo not drawn), the residual activity is 108%.
Same read-out and setting: the value for `Nc1nnc2[nH]c3ccccc3nc1-2` was 95.8%; that for `Cn1sc(=O)n(Cc2ccccc2)c1=O` was 98.2%.

In the next experiment the target is ADRBK1 (human) (UniProt P25098). The description is as above. Conditions: compound 0.5 µM; ATP 10 µM.
ADRBK1 (human), sequence (P25098 whole entry, looked up): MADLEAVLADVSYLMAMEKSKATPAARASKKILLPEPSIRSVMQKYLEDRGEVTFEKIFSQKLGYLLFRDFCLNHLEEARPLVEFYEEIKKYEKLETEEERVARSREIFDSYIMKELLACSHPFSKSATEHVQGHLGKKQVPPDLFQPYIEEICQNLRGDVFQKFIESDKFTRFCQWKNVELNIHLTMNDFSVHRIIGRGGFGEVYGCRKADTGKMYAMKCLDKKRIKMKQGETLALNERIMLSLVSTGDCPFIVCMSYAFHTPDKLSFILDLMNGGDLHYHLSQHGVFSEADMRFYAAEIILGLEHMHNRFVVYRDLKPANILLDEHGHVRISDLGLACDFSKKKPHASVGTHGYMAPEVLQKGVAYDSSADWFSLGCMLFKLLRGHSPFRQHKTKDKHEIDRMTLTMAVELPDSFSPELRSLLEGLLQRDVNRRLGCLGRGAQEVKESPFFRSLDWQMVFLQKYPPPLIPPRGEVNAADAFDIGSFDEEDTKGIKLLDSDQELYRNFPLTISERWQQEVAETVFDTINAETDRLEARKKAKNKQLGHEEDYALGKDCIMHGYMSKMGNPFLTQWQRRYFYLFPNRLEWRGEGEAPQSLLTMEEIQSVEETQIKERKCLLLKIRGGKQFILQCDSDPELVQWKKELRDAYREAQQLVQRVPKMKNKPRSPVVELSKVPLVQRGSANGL
For `O=C1Nc2ccccc2/C1=C1/Nc2ccccc2/C1=N\OCCC(O)CO` (stereo not drawn), the residual activity is 101%.
The same measure, in the same setting: then `Nc1nnc2[nH]c3ccccc3nc1-2`, with 101%; and `Cn1sc(=O)n(Cc2ccccc2)c1=O`, with 96.7%.

For another experiment, the target named is PHKG2 (human) (UniProt P15735). The description is as above. Conditions: compound 0.5 µM; ATP 10 µM.
As to `O=C1Nc2ccccc2/C1=C1/Nc2ccccc2/C1=N\OCCC(O)CO` (stereo not drawn), the residual activity turned out to be 34.9%.
Same read-out and setting: the value for `Nc1nnc2[nH]c3ccccc3nc1-2` was 96.6%; that for `Cn1sc(=O)n(Cc2ccccc2)c1=O` was 90.6%.

The target in another experiment is HCK (human) (UniProt P08631). The experiment is described as above. Conditions: compound 0.5 µM; ATP 10 µM.
For the molecule `O=C1Nc2ccccc2/C1=C1/Nc2ccccc2/C1=N\OCCC(O)CO` (stereo not drawn), the residual activity came out at 23%.
`Nc1nnc2[nH]c3ccccc3nc1-2`: the residual activity was found to be 98.6%.
Same read-out and setting: the value for `Cn1sc(=O)n(Cc2ccccc2)c1=O` was 103%.

The target in a further experiment is TAOK3 (human) (UniProt Q9H2K8). Described as above. Conditions: compound 0.5 µM; ATP 10 µM.
For `O=C1Nc2ccccc2/C1=C1/Nc2ccccc2/C1=N\OCCC(O)CO` (stereo not drawn), the residual activity worked out at 55.4%.
For `Nc1nnc2[nH]c3ccccc3nc1-2`, the residual activity came out at 97.1%.
On the same count and under the same terms, the value for `Cn1sc(=O)n(Cc2ccccc2)c1=O` was 101%.

Another experiment concerns the target CSNK1A1 (human) (UniProt P48729). Described as above. Conditions: compound 0.5 µM; ATP 10 µM.
As to `O=C1Nc2ccccc2/C1=C1/Nc2ccccc2/C1=N\OCCC(O)CO` (stereo not drawn), the residual activity came out at 84.8%.
Still for that read-out and setting: then `Nc1nnc2[nH]c3ccccc3nc1-2`, with 101%.
On the same count and under the same terms, then `Cn1sc(=O)n(Cc2ccccc2)c1=O`, with 99.5%.

The next experiment deals with SRPK1 (human) (UniProt Q96SB4). The description is as above. Conditions: compound 0.5 µM; ATP 10 µM.
Take `O=C1Nc2ccccc2/C1=C1/Nc2ccccc2/C1=N\OCCC(O)CO` (stereo not drawn): the residual activity was 71.3%.
The same measure, in the same setting: the value for `Nc1nnc2[nH]c3ccccc3nc1-2` was 101%; that for `Cn1sc(=O)n(Cc2ccccc2)c1=O` was 89.8%.

A further experiment deals with MAP3K8 (human) (UniProt P41279). The experiment is described as above. The note with it: compound 0.5 µM; ATP 10 µM.
MAP3K8 (human), sequence (P41279 whole entry, looked up): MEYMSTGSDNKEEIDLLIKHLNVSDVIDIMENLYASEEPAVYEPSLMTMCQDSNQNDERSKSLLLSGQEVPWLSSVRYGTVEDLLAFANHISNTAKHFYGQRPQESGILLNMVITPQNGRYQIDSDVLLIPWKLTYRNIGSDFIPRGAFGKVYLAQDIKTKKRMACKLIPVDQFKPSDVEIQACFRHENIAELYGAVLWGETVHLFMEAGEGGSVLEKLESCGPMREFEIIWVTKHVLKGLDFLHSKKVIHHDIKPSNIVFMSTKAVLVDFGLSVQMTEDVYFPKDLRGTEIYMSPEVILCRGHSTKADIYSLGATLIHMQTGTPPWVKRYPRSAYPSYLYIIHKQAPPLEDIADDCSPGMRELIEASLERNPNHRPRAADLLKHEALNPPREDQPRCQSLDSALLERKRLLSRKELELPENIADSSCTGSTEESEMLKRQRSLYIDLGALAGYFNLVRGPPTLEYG
For the molecule `O=C1Nc2ccccc2/C1=C1/Nc2ccccc2/C1=N\OCCC(O)CO` (stereo not drawn), the residual activity is 123%.
Same read-out and setting: then `Nc1nnc2[nH]c3ccccc3nc1-2`, with 81.3%; and `Cn1sc(=O)n(Cc2ccccc2)c1=O`, with 97.1%.
